Assay results: patent US20240059729A1, “MULTIFUNCTIONAL CYCLIC DINUCLEOTIDE AND USE THEREOF” (TYLIGAND BIOSCIENCE (SHANGHAI) LIMITED, priority 2020, published 2024)
Structures can show the parent of a compound that is named as a salt.

Tests used:
[1] = system: CT26 cells; assay: Inhibition of proliferation of CT26 cells (CellTiter-Glo); assay type: cell-based, mouse; conditions: for IC50: Mus musculus, 120 hours, CellTiter-Glo
Experimental: CT26 cell is a mouse colorectal cancer cell line. This assay used the CellTiter-Glo Luminescence Cell Vitality Assay kit from Promega to evaluate the inhibitory activity of the compounds on the proliferation of CT26 cells.
In thawing the CT26 cells (ATCC #CRL-2638), a cell freezing tube was quickly shaken in a water bath at 37° C. to thaw the cells within 1 min. The thawed cell suspension was taken and evenly mixed with DMEM medium (GE, Cat #SH30243.01) containing 10% FBS (GIBCO, Cat #10099-141), centrifuged for 5 min at 1000 rpm, and the supernatant was discarded. The cell pellet was resuspended in 5 mL of the complete medium (DMEM medium containing 10% FBS), placed into a cell culture flask with a bottom area of 25 cm^2, and incubated in a cell incubator at 37° C., 5% CO2 and 95% humidity. When the cell confluence reached 70%˜80%, the cells were passaged. All the cells in the culture flask were transferred to a 15 mL centrifuge tube, centrifuged for 5 min at 1000 rpm, and the supernatant was discarded. 5 mL of fresh complete medium was added to re-suspend the cell pellet, 1 mL of which was taken to place in a cell culture flask with a bottom area of 25 cm^2, supplemented with 4 mL of fresh complete medium for further incubation. When the cell confluence reached 70%-80% again, plating was conducted following the procedure of cell passage, retaining 1/5 cell suspension for further inculation and remaining 4/5 of the cell suspension in a 15 mL centrifuge tube.
The cell suspension was centrifuged to discard the old culture medium, washed once using DMEM medium (serum-free), and centrifuged to remove the supernatant. The cells were then re-suspended in DMEM medium (serum-free). Cell viability was then detected by Trypan blue exclusion test and to be used for plating when the cell viability was confirmed to be more than 95%. A cell suspension with a density of 1.1×10^4 viable cells/mL was prepared using DMEM medium (serum-free), and 90 μL of the cell suspension was added to a 96-well 96-well transparent flat-bottomed black-walled cell culture plate (Corning, Cat #3603) so that the cell density in the plate was 1000 viable cells/well. A control group containing no cells, no compound, and complete medium only (i.e., a culture medium control), and a control group containing no compound but cells (i.e., a cell control) were set. The cell plates were placed in a cell incubator overnight.
(§1) A 10 mM stock solution of the compounds in DMSO was first serially diluted at 3.16-fold with DMSO (Sigma, Cat #D2650) to the 9th concentration, and the 10th concentration was set as DMSO control (compound-free). Then, the DMSO solutions containing different concentrations of the compounds were diluted at 10-fold with PBS (Solarbio, Cat #P1020) so that the DMSO content in each compound solution of various concentrations was 10%. Finally, 10 μL of each of such solutions was added into corresponding cell culture plate to provide an initial compound concentration of 100 μM, with the dilution fold of adjacent concentrations being 3.16 and the DMSO content in the cell culture plate being 1%. The cell plate was placed in a cell incubator for further 120 hours.
After 120 hours, the CellTiter-Glo reagent (Promega, Cat #G7572) was thawed and the plates were equilibrated at room temperature for 30 min. 100 uL of CellTiter-Glo was added to each well of the plate, and the cells were lysed thoroughly by shaking on an orbital shaker for 5 min. The plates were placed at room temperature for 20 min to stabilize the luminescence signal, and the luminescence value of each well was scanned at full wavelength with a multifunctional microplate reader (Molecular Devices, Spectramax M3). […]

[2] = system: IFN-β secretion by THP-1 cells; assay: Activation of IFN-β secretion by THP-1 cells (Human IFN-beta ELISA); assay type: cell-based; conditions: THP-1 cells, 24 hours, IFN-β ELISA
Experimental: THP-1 cell, a human monocytic leukemia cell line, has the STING phenotype of HAQ type, i.e., R71H-G230A-R293Q. This assay used the Human IFN-beta DuoSet ELISA Kit from R & D (R & D, Cat #DY814-05) and the DuoSet ELISA Ancillary Reagent Kit 2 (R & D, Cat #DY008) to evaluate the activation of IFN-β secretion from THP-1 cells by representative compounds of the invention.
In thawing the THP-1 cells (ATCC #TIB-202), a cell freezing tube was quickly shaken in a water bath at 37° C. to thaw the cells within 1 min. The thawed cell suspension was taken and evenly mixed with an RPMI1640 medium (Hyclone, product #SH30027.01) containing 10% FBS (Life Technology, Cat #10099-141), centrifuged for 5 min at 1000 rpm, and the supernatant was discarded. The cell pellet was resuspended in 5 mL of the complete medium (RPMI 1640 medium containing 10% FBS), placed into a cell culture flask with a bottom area of 25 cm^2, and incubated in a cell incubator at 37° C., 5% CO2 and 95% humidity. When the cell confluence reached about 80%, the cells were passaged. All the cells in the culture flask were transferred to a 15 mL centrifuge tube, centrifuged for 5 min at 1000 rpm, and the supernatant was discarded. 5 mL of fresh complete medium was added to re-suspend the cell pellet, 1 mL of which was taken to place in a cell culture flask with a bottom area of 25 cm^2, supplemented with 4 mL of fresh complete medium for further incubation. When the cell confluence reached about 80% again, plating was conducted following the procedure of cell passage, retaining 1/5 cell suspension for further inculation and remaining 4/5 of the cell suspension in a 15 mL centrifuge tube. The cell suspension was centrifuged to discard the old culture medium, washed once using RPMI1640 culture medium (serum-free), and centrifuged to remove the supernatant. The cells were then re-suspended in RPMI1640 culture medium (serum-free). Cell viability was then detected by Trypan blue exclusion test and to be used for plating when the cell viability was confirmed to be more than 95%. A cell suspension with a density of 1.1×10^6 viable cells/mL was prepared using RPMI1640 culture medium (serum-free), and 180 μL of the cell suspension was added to a 96-well cell culture plate (NUNC Company, Cat #167008) so that the cell density in the plate was 2×10^5 viable cells/well.
as §1, with “the 5th” for “the 9th”, “the 6th” for “the 10th”, “PBS” for “PBS (Solarbio, Cat #P1020)”, “Finally, 20” for “Finally, 10”, “further 24” for “further 120”
ELISA detection was conducted referring to the instructions from R & D System, Cat #DY814-05.
ELISA plate coating: PBS (R & D System Cat #DY006) was used to dilute the capture antibody (mouse anti-human IFN-β capture antibody PART #844508) to provide the working concentration, and 100 μL capture antibody working solution was added to a 96-well ELISA plate which was then sealed and incubated overnight at room temperature. Upon discarding the capture antibody working solution, the cell plate was washed 3 times with a washing buffer (0.05% Tween-20 in PBS, pH 7.2-7.4, R & D System Cat #WA126) at 400 μL of the washing buffer per well, and the washing buffer was thoroughly removed after each washing, with the final washing to be completely removed of the wash buffer by inverting and claping the plate to a clean piece of paper. […]

SMILES | EC50 ([2]; Homo sapiens, THP-1, 24 h) [µM] | also measured
Nc1ccn([C@@H]2O[C@H](CO)[C@@H](O)C2(F)F)c(=O)n1 [Gemcitabine, gemcitabine, reference compound] | – | IC50 [1]: < 1000 nM
Nc1nc(Cl)nc2c1ncn2[C@@H]1O[C@@H]2CO[P@@](=O)(S)OC3[C@@H](F)[C@H](n4cnc5c(N)nc(Cl)nc54)O[C@@H]3CO[P@@](=O)(S)O[C@@H]2C1F (stereo partly drawn) [Example 1, (3′,3′)-cyclo-(Rp,Rp)-bis-[3′-O-phosphorothioate-diester-2-chloro-2′-deoxy-2′-fluoro-beta-adenosine]1.5-ammonium-0.5-1,8-diazabicycloundec-7-ene-salt] | – | IC50 [1]: 1000 to 10000 nM
Nc1nc2c(ncn2[C@@H]2O[C@@H]3COP(=O)(O)O[C@H]4[C@@H](O)[C@H](n5cnc6c(N)ncnc65)O[C@@H]4COP(=O)(O)O[C@@H]2[C@@H]3O)c(=O)[nH]1 [2′,3′-cGAMP, cGAMP, reference compound] | – | EC50 [2]: 10.1 to 100 µM
Nc1ccn([C@@H]2O[C@@H]3CO[P@@](=O)(S)OC4[C@@H](CO[P@@](=O)(S)OC3C2(F)F)O[C@@H](n2ccc(N)nc2=O)C4(F)F)c(=O)n1 (stereo partly shown) [Example 3, (3′,3′)-cyclo-(Rp,Rp)-bis-[3′-O-phosphorothioate-diester-2′-deoxy-2′,2′-difluorocytidine]] | – | Inhibitory potency on in vitro growth of CT26 tumor cells (in words) [1]: particularly significant inhibitory potency; IC50 [1]: < 1000 nM
Nc1nc2c(ncn2[C@@H]2O[C@@H]3CO[P@@](=O)(S)OC4C(F)[C@H](n5cnc6c(N)nc(Cl)nc65)O[C@@H]4CO[P@](=O)(S)OC3C2O)c(=O)[nH]1 (stereo partly drawn) [Example 15, (3′,3′)-cyclo-(Sp,Rp)-[3′-O-phosphorothioate-diester-guanosine]-[3′-O-phosphorothioate-diester-2-chloro-2′-deoxy-2′-fluoro-beta-adenosine] diammonium salt] | – | EC50 ([2]; diammonium salt): 10.1 to 100 µM
CNc1nc(N)c2ncn([C@@H]3O[C@@H]4CO[P@@](=O)(S)O[C@H]5C(O)[C@@H](CO[P@@](=O)(S)O[C@@H]4C3F)O[C@H]5n3cnc4c(=O)[nH]c(N)nc43)c2n1 (stereo partly drawn) [Example 26, (2′,3′)-cyclo-(Rp,Rp)-[2′-O-phosphorothioate-diester-guanosine]-[3′-O-phosphorothioate-diester-2-methylamino-2′-deoxy-2′-fluoro-beta-adenosine] diammonium salt] | 1 to 10 | –
Nc1nc2c(ncn2[C@@H]2O[C@@H]3CO[P@@](=O)(S)OC4C[C@H](n5cnc6c(N)nc(Cl)nc65)O[C@@H]4CO[P@@](=O)(S)OC3C2F)c(=O)[nH]1 (stereo partly shown) [Example 21, (3′,3′)-cyclo-(Rp,Rp)-[3′-O-phosphorothioate-diester-2′-deoxy-2′-fluoroguanosine]-[3′-O-phosphorothioate-diester-2-chloro-2′-deoxyadenosine] diammonium salt] | 10.1 to 100 | –
Nc1nc2c(ncn2[C@@H]2O[C@@H]3CO[P@](=O)(S)OC4C(F)[C@H](n5cnc6c(N)nc(Cl)nc65)O[C@@H]4CO[P@](=O)(S)OC2C3O)c(=O)[nH]1 (stereo partly drawn) [Example 9, (2′,3′)-cyclo-(Sp,Sp)-[2′-O-phosphorothioate-diester-guanosine]-[3′-O-phosphorothioate-diester-2-chloro-2′-deoxy-2′-fluoro-beta-adenosine] diammonium salt] | 10.1 to 100 | –
Nc1ncnc2c1ncn2[C@@H]1O[C@@H]2CO[P@@](=O)(S)O[C@@H]3C[C@H](n4cnc5c(N)nc(Cl)nc54)O[C@@H]3CO[P@@](=O)(S)OC2[C@@H]1F (stereo partly shown) [Example 19, (3′,3′)-cyclo-(Rp,Rp)-[3′-O-phosphorothioate-diester-2′-deoxy-2′-fluoroadenosine]-[3′-O-phosphorothioate-diester-2-chloro-2′-deoxyadenosine] 0.5-1,8-diazabicycloundec-7-ene-salt] | 10.1 to 100 | –
Nc1nc2c(ncn2[C@@H]2O[C@@H]3CO[P@@](=O)(S)OC4C[C@H](n5cnc6c(N)nc(Cl)nc65)O[C@@H]4CO[P@](=O)(S)OC2C3O)c(=O)[nH]1 (stereo partly shown) [Example 11, (2′,3′)-cyclo-(Sp,Rp)-[2′-O-phosphorothioate-diester-guanosine]-[3′-O-phosphorothioate-diester-2-chloro-2′-deoxy-adenosine] diammonium salt] | 10.1 to 100 | –
Nc1nc(Cl)nc2c1ncn2[C@@H]1O[C@@H]2CO[P@@](=O)(S)OC3[C@@H](CO[P@@](=O)(S)O[C@@H]2C1F)O[C@@H](n1cnc2c(N)ncnc21)[C@H]3F (stereo partly drawn) [Example 18, (3′,3′)-cyclo-(Rp,Rp)-[3′-O-phosphorothioate-diester-2′-deoxy-2′-fluoroadenosine]-[3′-O-phosphorothioate-diester-2-chloro-2′-deoxy-2′-fluoro-beta-adenosine]-0.5-ammonium-1.5-1,8-diazabicycloundec-7-ene-salt] | 10.1 to 100 | –
Nc1nc2c(ncn2[C@@H]2O[C@@H]3CO[P@@](=O)(S)OC4C(F)[C@H](n5cnc6c(N)nc(Cl)nc65)O[C@@H]4CO[P@](=O)(S)OC2C3O)c(=O)[nH]1 (stereo partly drawn) [Example 8, (2′,3′)-cyclo-(Sp,Rp)-[2′-O-phosphorothioate-diester-guanosine]-[3′-O-phosphorothioate-diester-2-chloro-2′-deoxy-2′-fluoro-beta-adenosine] diammonium salt] | 10.1 to 100 | –
